From patent publication US20040209315A1, “Methods to identify agents that increase or decrease UBP43 activity and methods for use of such agents” (priority 2003, published 2004)

Key:
[1] = test system: UBP43± and UBP43−/− bone marrow cells; assay: Liquid bone marrow cell culture, Trypan blue dye exclusion assay; assay type: cell-based, mice; conditions: 10 ng/ml, 48 hours
Description: (a) Bone marrow cells isolated from UBP43+/+ and UBP43−/− mice were cultured in vitro in the presence or the absence of INFβ (100 units/ml) for 48 hours. TUNEL assay was performed to study the percentage of apoptosis cells. […] Cells were then subjected to Trypan blue dye exclusion assay. Each data point represents the mean of three independent experiments. Error bar represents standard deviation about the mean.
In vitro bone marrow cell culture.
TNFα and the type II IFN-IFNγ are commonly used to study bone marrow cell growth and apoptosis and in the analysis of various knockout mouse models.

[2] = test system: UBP43+/+ and UBP43−/− mice; assay: Viability of mice after daily ip poly(I—C) injection; assay type: in vivo; conditions: daily ip poly(I—C) 5 μg/g body weight
Description: (§1) (a) Seven mice of each group (UBP43 +/+ and UBP43−/−) were ip injected daily with poly(I—C). Viability was monitored daily. (b) UBP43+/+ and UBP43−/− mice (n=4 for each group) were ip injected daily with poly(I—C). The total number of white blood cells (WEC) in the peripheral blood was counted daily after each poly(I—C) injection. (c) UBP43+/+ and UBP43−/− mice (n=5 for each group) were either left untreated or were ip injected with poly(I—C) 24 h prior to bone marrow extraction. Bone marrow cells were counted in control and poly(I—C) injected group of mice (two femurs from each mouse).
(§2) Poly(I—C) injection and hematopoietic cell counting: Poly(I—C) (Sigma) was dissolved in phosphate buffered saline and intraperitoneally (ip) injected to mice at 5 μg/g body weight (gbw). Blood and bone marrow nucleated cells were counted in Turk solution (3% acetic acid and 0.01% crystal violet in H2O).
(§3) UBP43-null mice are sensitive to potent IFN-inducer poly(I—C). Injection with synthetic double stranded RNA-polyinosinic acid-polycytidylic acid (poly(I—C)) has been commonly used to induce endogenous IFN production in mice. […] There were dramatic decreases (over 90%) in the total number of white blood cells in peripheral blood and nucleated cells in bone marrow of UBP43−/− mice.

[3] = test system: UBP43+/+ and UBP43−/− mice; assay: Hematopoietic cell counting (peripheral white blood cells, bone marrow nucleated cells) after poly(I—C) injection; assay type: in vivo
Description: as §1, §2, §3

[4] = test system: hematopoietic cells transplanted from UBP43+/+ or UBP43−/− mice; assay: Bone marrow transplantation, flow cytometric analysis of CD45.2+ donor blood cells before and after poly(I—C) injection; assay type: in vivo
Excerpt: (a) Hematopoietic cells transplanted from UBP43−/− mice to UBP43+/+ congenic strain mice are hypersensitive to poly(I—C) injection. Bone marrow cells (CD45.2+) from individual UBP43+/+ and UBP43−/− mice (n=4 for each group) were isolated and transplanted to lethally irradiated congenic strain mice (CD45.2−). Six months after the transplantation, flow cytometric analysis was done to determine the relative amount of peripheral blood cells contributed from the donor or recipient mice based on CD45-2 immunostaining before and after poly(I—C) injection (48 h). Flow cytometric analysis results from one representative mouse transplanted with UBP43+/+ or UBP43−/− bone marrow are presented. (b) UBP43−/− bone marrow cells are hypersensitive to IFNβ treatment. Bone marrow cells from UBP43+/+ and UBP43−/− mice were cultured at 2×10^4 cells/ml in CFU assay medium in the presence of various concentrations of IFNβ. Total colony number was counted after 12 days of culture. Results of a single representative experiment of two independent experiments are shown. […]
Bone marrow transplantation. […] The appearance of donor origin blood cells (CD45.2+) was detected by flow cytometric analysis with […] (FITC) conjugated CD45.2 antibodies (BD Biosciences). […]

Row | Substance | difference in cell death between UBP43± cells and UBP43−/− cells [1] | viability ([2]; UBP43+/+ mice (n=7)) | time within which all mice died post treatment ([2]; UBP43−/− mice (n=7)) [h] | decrease in number of total peripheral white blood cells ([3]; UBP43+/+ mice, ip poly(I—C)) [%] | decrease in total bone marrow nucleated cells ([3]; UBP43+/+ mice, ip poly(I—C) 24 h prior to bone marrow extraction) [%] | decrease in total number of white blood cells in peripheral blood ([3]; UBP43−/− mice, ip poly(I—C)) | decrease in nucleated cells in bone marrow ([3]; UBP43−/− mice, ip poly(I—C) 24 h prior to bone marrow extraction) | relative amount of CD45.2+ cells in the peripheral blood ([4]; UBP43+/+ donor, 48 h after poly(I—C) injection) | blood cells of the UBP43−/− genotype (CD45.2+) ([4]; UBP43−/− donor, 48 hours post administration, 79% before dosing) [%]
1 | IFNγ: type II IFN, proapoptotic cytokine (Peprotech) | did not cause a significant difference |  |  |  |  |  |  |  | 
2 | TNF-α | did not cause a significant difference |  |  |  |  |  |  |  | 
3 | polyinosinic acid-polycytidylic acid [poly(I—C)] |  | survived the course of treatment | ≤ 72 | 20 | 30 | over 90% | over 90% | did not change | 12
